Values of other authors in patent US12564552B2, “Oral product with a basic amine and an ion pairing agent” (NICOVENTURES TRADING LIMITED, priority 2021, dated 2026).

Legend:
human buccal tissue = conditions: nicotine solution pH=6 vs pH 8.1, perfusion cell, Adrian et al.
[1] = not given; remark: listed apart in the source

| solubility in fats and alcohols [1] | solubility in water [1] | chemical stability ([1]; isolated, isomerizes to trans-bixin (β-bixin)) | SMILES | log Ka1 (pyridine ring nitrogen) (pyridine ring nitrogen) | log Ka2 (pyrrolidine ring nitrogen) (pyrrolidine ring nitrogen) | factor by which diffusion rate is reduced at pH 6 relative to pH 8.1 (human buccal tissue) |
| --- | --- | --- | --- | --- | --- | --- |
| – | – | – | CN1CCCC1c1cccnc1 (stereo not shown) [nicotine] | 3.41 | 8.02 | ~7 |
| soluble in fats and alcohols | insoluble in water | chemically unstable when isolated | COC(=O)/C=C/C(C)=C\C=C\C(C)=C\C=C\C=C(C)\C=C\C=C(C)\C=C\C(=O)O [bixin, (2E,4E,6E,8E,10E,12E,14E,16Z,18E)-20-methoxy-4,8,13,17-tetramethyl-20-oxoicosa-2,4,6,8,10,12,14,16,18-nonaenoic acid] | – | – | – |
| – | water-soluble | – | CC(/C=C/C=C(C)/C=C/C(=O)O)=C\C=C\C=C(C)\C=C\C=C(C)\C=C\C(=O)O (stereo in doubt) [norbixin, (2E,4E,6E,8E,10E,12E,14E,16E,18E)-4,8,13,17-tetramethylicosa-2,4,6,8,10,12,14,16,18-nonaenedioic acid] | – | – | – |
